US20040034003A1, “7-Hydroxy-16alpha-fluoro-5-androsten-17-ones and 7-hydroxy-16alpha-fluoro-5-androstan-17-ones and derivatives thereof” (priority 2002, published 2004)
Several values for one entry are separate records, joined by “and”; a condition that tells them apart may be missing. Equal entries are not always repeated.

System: TPA-Induced DNA Synthesis in Mouse Epidermis
Assay: TPA-induced DNA synthesis in mouse epidermis: [3H]thymidine incorporation and epidermal DNA content of a 2x2 cm2 skin section
Assay type: in vivo
Conditions: Example 5; for cpm/μg DNA (group average ±) / corrected cpm / cpm/μg DNA / μg DNA / cpm: 20 h; for corrected cpm / cpm/μg DNA / μg DNA / cpm: individual mouse
Protocol: Epidermal hypeplasia is determined by measuring the stimulation in [^3H] thymidine incorporation as well as epidermal DNA content of a 2×2 cm^2 section of skin twenty hours after TPA application.
In prior experiments, 16α-fluoro-5-androsten-17-one was administered in escalating doses by the oral subcutaneous, intraperitoneal, and buccal routes of administration, and the effect on TPA-stimulated epidermal [^3H] thymidine incorporation and epidermal DNA content was determined.
In this experiment, the effect of treating mice subcutaneously (s.c.) with suspensions of 7α-hydroxy-16α-flouro-5-androsten-17-one and suspensions of 16aflouro-5-androsten-17-one were investigated.
Variousl6α-flouro-5-androsten-17 one suspensions (Q) were prepared. The vehicle was 95% saline (0.9% NaCl) and 5% Emulphor. For the 5 mg/kg s.c. suspension, 25.3 mg was suspended in 10 mL of Emulphor-saline. The other suspensions were made by diluting the 5 mg/kg suspension. For the 2.5 mg/kg suspension, 1 mL of 5mg/kg s.c. suspension was diluted to a final volume of 2mL, for the 1 m/kg suspension 1 mL of the 5 mg/kg suspension was made to a total of 5 mL, while for the 0.125 mg/kg suspension, 0.5 mL of the 5 mg/kg suspension was made to a final volume of 20 mL. Magnetic stir bars were added to the suspensions which were kept on a magnetic stirrer.
7α-hydroxy-16α-flouro-5-androsten-17-one was prepared as described hereinabove. For the 5 mg/kg s.c. suspension, 16.3 mg was suspended in 6.5 mL of Emulphor-saline. The other suspensions were made by diluting the 5 mg/kg suspension. For the 2.5 mg/kg, 1 mL of 5 mg/kg suspension was diluted to a final volume of 2 mL, for the 1 mg/kg suspension 1 mL of the 5 mg/kg suspension was made to total 5 mL, while for the 0.125 mg/kg suspension, 0.5 mL of the 5 mg/kg suspension was made up to final volume of 20 mL. Magnetic stir bars were added to the suspensions and the suspensions were kept on a magnetic stirrer.
Female CD-1 mice were obtained from Charles River Laboratories, Wilmington, Mass. at 44-46 days of age. The mice were housed two to three per cage in plastic shoebox cages on Alphacel bedding with 12 hours of alternating light and dark in the CAF Animal Facility, 6th floor, Pharmacy Building. The mice had ad libitum access-to Purina 5015 chow and acidified tap water (pH≦2.6). The mice were allowed to acclimate to the facility for one week prior to use in an experiment. Three days after obtaining the mice, the mice were shaved and weighed. Only those mice showing no hair regrowth were used in the experiment.
Four days after the mice were shaved, they were treated as follows:
The mice were sacrificed 20 hours after treatment by an overdose of CO2. Twenty minutes prior to sacrifice, the mice were injected with 60 μCi of [^3H]thymidine (Amersham Batch 297). The mice were treated with a depilatory to remove any residual hair. A 2×2 cm^2 piece of skin was excised, placed in ice water for 30 seconds, then in 55° C. water for 30 seconds, then ice water again for 30 seconds. The epidermis was scrapped off using a scalpel and the scrapings were placed into ice cold 0.4N TCA (trichloroacetic acid). The scrapings were homogenized using a Tekmar Tissumizer (80% power for 30 seconds). The homogenates were centrifuged for 20 minutes at 3,000×g. The precipitates were washed 3× with 0.2N TCA, and 2× with absolute ethanol. The DNA in each sample was hydrolyzed with 0.5N TCA for 30 minuts at 90°. The tubes were centrifuged for 20 minutes at 3000×g. A 0.2 mL aliquot of each hydrolysate was counted in a LKB Rackbeta scintillation counter using Scintiverse II BD as the counting medium. DNA content was determined by the Burton diphenylamine assay.
Various suspensions were prepared of 16α-fluoro-5-androsten-17-one as follows. The vehicle was 95% saline (0.9% NaCl) and 5% Emulphor. For the 5 mg/kg s.c. suspension, 27.8 mg was suspended in 11.4 mL of Emulphor-saline. The other suspensions were made by diluting the 5 mg/kg suspension. […]

[1] = 1 mg/kg s.c. 1 h before topical TPA 2 μg, 1 mg/kg
[2] = 1.75 mg/kg s.c. 1 h before topical TPA 2 μg, 1.75 mg/kg
[3] = 2.5 mg/kg s.c. 1 h before topical TPA 2 μg, 2.5 mg/kg
[4] = 3.75 mg/kg s.c. 1 h before topical TPA 2 μg, 3.75 mg/kg
[5] = 5 mg/kg s.c. 1 h before topical TPA 2 μg, 5 mg/kg

C[C@]12CCCCC1=C[C@H](O)[C@@H]1[C@@H]2CC[C@]2(C)C(=O)[C@H](F)C[C@@H]12 [7β-hydroxy-16α-fluoro-5-androsten-17-one, 16α-fluoro-7β-hydroxy-5-androsten-17-one]
cpm/μg DNA (group average ±) (1 mg/kg s.c. 1 h before topical TPA 2 μg): 283.4 ± 35.3 cpm/μg DNA
corrected cpm [1]: 4,501.0 cpm and 3,230.0 cpm
cpm/μg DNA [1]: 308.3 cpm/μg DNA and 258.4 cpm/μg DNA
μg DNA [1]: 14.6 µg and 12.5 µg
cpm (1 mg/kg s.c. 1 h before topical TPA 2 μg, female CD-1 mice, 1 mg/kg): 4,527.0 cpm and 3,256.0 cpm
cpm/μg DNA (group average ±) (1.75 mg/kg s.c. 1 h before topical TPA 2 μg): 156.6 ± 17.0 cpm/μg DNA
corrected cpm [2]: 1,445.0 cpm and 1,534.0 cpm
cpm [2]: 1,471.0 cpm and 1,560.0 cpm
cpm/μg DNA [2]: 144.5 cpm/μg DNA and 168.6 cpm/μg DNA
μg DNA [2]: 10.0 µg and 9.1 µg
cpm/μg DNA (group average ±) (2.5 mg/kg s.c. 1 h before topical TPA 2 μg): 480.5 ± 117.6 cpm/μg DNA
corrected cpm [3]: 3,814.0 cpm and 5,861.0 cpm
cpm [3]: 3,840.0 cpm and 5,887.0 cpm
cpm/μg DNA [3]: 397.3 cpm/μg DNA and 563.6 cpm/μg DNA
μg DNA [3]: 9.6 µg and 10.4 µg
cpm/μg DNA (group average ±) (3.75 mg/kg s.c. 1 h before topical TPA 2 μg): 485.4 ± 115.3 cpm/μg DNA
corrected cpm [4]: 4,706.0 cpm and 2,585.0 cpm
cpm [4]: 4,732.0 cpm and 2,611.0 cpm
cpm/μg DNA [4]: 567.0 cpm/μg DNA and 403.9 cpm/μg DNA
μg DNA [4]: 8.3 µg and 6.4 µg
cpm/μg DNA (group average ±) (5 mg/kg s.c. 1 h before topical TPA 2 μg): 653.7 ± 61.0 cpm/μg DNA
corrected cpm [5]: 6,132.0 cpm and 3,908.0 cpm
cpm [5]: 6,158.0 cpm and 3,934.0 cpm
cpm/μg DNA [5]: 696.8 cpm/μg DNA and 610.6 cpm/μg DNA
μg DNA [5]: 8.8 µg and 6.4 µg
activity compared with 16α-fluoro-5-androsten-17-one (in words) (s.c.): much more active
dose producing an overstimulation of [3H]thymidine incorporation (s.c.): 2.5 mg/kg
